Laboratory results as given in patent US10906920B2, “Heterocyclic compounds as immunomodulators” (Incyte Corporation, priority 2018, dated 2021).

Columns and labels:
[1] = tested on: PD-L1 aAPC/CHO-K1 cells and Jurkat-PD-1-NFAT effector cells; assay: Nuclear factor of activated T-cells (NFAT) assay; type: cell-based
Method: The culture media of PD-L1 aAPC/CHO-K1 cells were first replaced with assay medium (RPMI1640 medium with 1% FBS). […] The assay plate was incubated at 37° C., 5% CO2 for 24 hours. […] After 8 minutes incubation at room temperature, luminescence was read at with Pherastar microplate reader (BMG Labtech). The fold of induction (FOI) was calculated based on the ratio of luminescence normalized to the DMSO wells within each assay plate. The maximum percentage of induction was reported based on the ratio between the highest FOI of each compound and the maximum FOI of control compound within each assay plate. Wells with DMSO were served as the negative controls and wells containing control compound with the highest FOI were used as positive controls. EC50 determination was performed by fitting the curve of percent control activity versus the log of the compound concentration using the GraphPad Prism 6.0 software.

[2] = tested on: U2OS/PD-L1 cells and Jurkat-PD-1-SHP cells; assay: Src homology region 2 domain-containing phosphatase (SHP) assay; type: cell-based; settings: Homo sapiens
Method: Example B. Src Homology Region 2 Domain-Containing Phosphatase (SHP) Assay
U2OS/PD-L1 cells (DiscoveRx Corporation) were maintained in McCoy's 5A medium with addition of 10% FBS, 0.25 μg/ml Puromycin. After removing the culture media, the cell medium was replaced with assay medium (RPMI1640 medium with 1% FBS). The U2OS/PD-L1 cells were then added in 384-well black clear bottom assay plate (CELLCOAT® Tissue Culture Plates, Greiner Bio-One) at 5000 cells per well in 20 μL assay medium. Test compounds were prepared by serial dilution in DMSO and 125 nL compound were first transferred to the 384 REMP plate well (Thermofisher) by ECHO liquid handler (Labcyte) followed with addition of 27.5 μL assay medium. 5 μL/well compounds in the assay medium were transferred to the cell plate with 0.05% DMSO in the final assay at 0.25 Jurkat-PD-1-SHP cells (DiscoveRx Corporation) were cultured in RPMI1640 medium supplemented with 10% FBS, 250 μg/ml Hygromycin B, 500 μg/ml G418. After the replacement of culture media with assay medium, 5,000 Jurkat-PD-1-SHP cells in 20 μL were dispensed into each well. The assay plate was incubated at 37° C., 5% CO2 for 2 hours before 2.5 μL PathHunter reagent 1 (DiscoveRx Corporation) were added to each well. […] Chemiluminescent signal was recorded with TopCount reader (Perkin Elmer) after incubation at room temperature for 1 hour. […]

SMILES	EC50 [1] [nM]	IC50 [2] [nM]
Cn1c(C(=O)Nc2cccc(-c3cccc(NC(=O)c4nc5c(n4C)CCN(CC(C)(C)C(=O)O)C5)c3Cl)c2Cl)nc2c1CCN(CCC13CCC(C(=O)O)(CC1)C3)C2 [Example 21, 4-(2-(2-((3′-(5-(2-carboxy-2-methylpropyl)-1-methyl-4,5,6,7-tetrahydro-1H-imidazo[4,5-c]pyridine-2-carboxamido)-2,2′-dichloro-[1,1′-biphenyl]-3-yl)carbamoyl)-1-methyl-1,4,6,7-tetrahydro-5H-imidazo[4,5-c]pyridin-5-yl)ethyl)bicyclo[2.2.1]heptane-1-carboxylic acid]	10 to 100	–
Cn1c(C(=O)Nc2cccc(-c3cccc(NC(=O)c4nc5c(n4C)CCN(CCC46CCC(C(=O)O)(CC4)C6)C5)c3Cl)c2Cl)nc2c1CCN(CCCCC(=O)O)C2 [Example 63, 4-(2-(2-((3′-(5-(4-carboxybutyl)-1-methyl-4,5,6,7-tetrahydro-1H-imidazo[4,5-c]pyridine-2-carboxamido)-2,2′-dichloro-[1,1′-biphenyl]-3-yl)carbamoyl)-1-methyl-1,4,6,7-tetrahydro-5H-imidazo[4,5-c]pyridin-5-yl)ethyl)bicyclo[2.2.1]heptane-1-carboxylic acid]	–	≤ 10
